Measured values from patent US20230233425A1, “USE OF VOLATILE COMPOSITIONS TO LIMIT OR ELIMINATE THE PERCEPTION OF MALODOR” (Firmenich SA, priority 2017, published 2023).
Read-outs that look alike come from different tables or passages of the source. Marks after values point to notes of the source that are not given here.

Experiments:
[1] = system: OR11A1, or the OR2M3 olfactory receptor; assay: Geonol olfactory receptor antagonist cell-based screening, inhibitory dose-response vs geonol EC80; design: species or system human; settings: geonol at EC80; for IC50: read-out: IC50
[2] = system: geonol malodor (earthy/moss odor) perception; assay: Sensory evaluation of geonol earthy/moss odor in iso-intense binary mixtures (glass jars); format: in vivo, human; settings: iso-intense binary mixture
Source text: (§1) Sensory Evaluation: Five 16 oz glass jars containing either REF (geonol only), geonol only control, antagonist only, mixture of geonol and isointense antagonist, or mixture of geonol and low intensity antagonist were presented to the panelists (last four samples were randomized across panelists). The panelists were asked to familiarize themselves with the earthy/moss odor quality from the REF jar first, then rate the pleasantness, earthy/moss odor intensity and overall odor intensity of the next four samples on a 0-10 linear scale. The inter-stimulus interval between the samples was two minutes to avoid adaptation.

[3] = system: geonol earthy/moss odor perception; assay: Human sensory performance of test compounds with and without geonol; format: in vivo; settings: for % Earthy/Moss Odor: Test Compound Only
Source text: as §1, with “adaptation. […]” for “adaptation.”
The results are shown in Tables 16 and 17, and FIGS. 3 to 5.

[4] = system: 1-octen-3-ol mushroom/earthy/fungal odor perception; assay: Human sensory performance of test compounds with and without 1-octen-3-ol; format: in vivo; settings: for % Mushroom/Earthy/Fungal Odor: Test Compound Only
[5] = system: OR2W1 or the OR1A1 olfactory receptor; assay: 1-octen-3-ol olfactory receptor antagonist cell-based dose-response vs 1-octen-3-ol EC80; settings: for IC50: 1-octen-3-ol at EC80; for % Inhibition: maximum inhibition normalized to baseline agonist activity
Source text: Each cell line was screened with a volatile compound library for their inhibitory properties and potential 1-octen-3-ol smell inhibition.
Single concentration monitoring of the 1-octen-3-ol induced cell activity in the presence or absence of a test compound allowed for the identification of compounds with a putative suppression or inhibitory effect.

[6] = biological target: Olfr738 (Mus musculus, UniProt L7N1X7); assay: Indole antagonist dose-response, cAMP HTRF in HEK293T, vs indole EC80; format: cell-based; settings: vs indole EC80; for IC50: Table 22, first listing (r7-r45), read-out: Olfr738 IC50
Method: (§2) Using a cell-based assay, mouse receptor Olfr738, Olfr739, Olfr740, Olfr741, 0fr742, Olfr743, Olfr744, Olfr746, Olfr748 and Olfr749 were tested in an HEK293T cell line wherein the endogenous RTP1 gene has been activated and the odorant receptor chaperone was expressed (described in WO2016201153A1). The receptor genes were tagged with a Flag-Rho tag combination. Receptor genes were co-transfected with the canonical olfactory human G-protein alpha subunit Golf gene. Co-expression of the human Golf activates the Gs transduction pathway that leads to an internal cAMP increase upon binding to the appropriate ligand (indole here). Odorant-induced activity was detected by measuring the cAMP increase in the cytosol using an HTRF based kit (CisBio, cAMP dynamic 2 kit, cat. 62AM4PEJ).

[7] = biological target: Olfr740 (Mus musculus, UniProt E9PV79); assay: as above; format: cell-based; settings: vs indole EC80; for Emax: HEK-293T, read-out: Olfr740 % Inhibition; for IC50: Table 22, first listing (r7-r45), read-out: Olfr740 IC50
Method: as §2

[8] = biological target: Olfr741 (Mus musculus, UniProt L7N1Y5); assay: as above; format: cell-based
Method: as §2

[9] = biological target: Olfr742 (Mus musculus, UniProt A2RTP5); assay: as above; format: cell-based; settings: vs indole EC80; for Emax: HEK-293T, read-out: Olfr742 % Inhibition
Method: as §2

[10] = biological target: Olfr739 (Mus musculus, UniProt E9Q1P0); assay: as above; format: cell-based
Method: as §2, with “Functional dose-response experiments were performed to identify compounds capable of antagonizing indole-sensitive receptors previously identified (U.S. Pat. No. 9,914,760 B2). Using” for “Using”, “62AM4PEJ). The receptors were exposed to binary mixtures of increasing concentrations of the test compounds in the presence of a potent activation concentration of indole (EC80) for each receptor. […] All the compounds listed decreased the indole induced activity of at least one receptor.” for “62AM4PEJ).”

[11] = biological target: T1, OR51E1 olfactory receptor (Homo sapiens, UniProt Q8TCB6); assay: Butyric acid olfactory receptor antagonist cell-based dose-response vs butyric acid EC80; settings: butyric acid at EC80; Table 5
T1 construct: expressed in transfected cells
T1 sequence (Q8TCB6 1-318): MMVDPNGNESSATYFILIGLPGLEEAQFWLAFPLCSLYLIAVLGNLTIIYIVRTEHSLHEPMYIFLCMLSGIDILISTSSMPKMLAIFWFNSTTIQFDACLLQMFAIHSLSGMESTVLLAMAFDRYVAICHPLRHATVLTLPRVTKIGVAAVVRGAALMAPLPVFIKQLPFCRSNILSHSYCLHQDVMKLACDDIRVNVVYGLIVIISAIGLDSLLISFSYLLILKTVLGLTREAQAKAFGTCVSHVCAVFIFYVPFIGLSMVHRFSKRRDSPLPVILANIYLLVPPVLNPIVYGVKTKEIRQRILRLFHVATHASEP

[12] = biological target: T2, Olfr749 (Mus musculus, UniProt E9Q438); assay: Indole antagonist dose-response, cAMP HTRF in HEK293T, vs indole EC80; format: cell-based; settings: Table 23
T2 construct: Flag; Rho tag; expressed in transfected cells
T2 sequence (E9Q438 1-313): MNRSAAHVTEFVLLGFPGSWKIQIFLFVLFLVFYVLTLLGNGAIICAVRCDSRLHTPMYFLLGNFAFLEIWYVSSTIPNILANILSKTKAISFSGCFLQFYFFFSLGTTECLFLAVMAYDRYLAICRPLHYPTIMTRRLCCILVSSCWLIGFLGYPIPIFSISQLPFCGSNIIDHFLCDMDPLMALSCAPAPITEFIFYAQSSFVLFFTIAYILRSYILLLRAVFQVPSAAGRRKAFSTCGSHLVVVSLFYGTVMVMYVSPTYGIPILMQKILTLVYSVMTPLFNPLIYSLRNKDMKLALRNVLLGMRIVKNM
Method: as §2, with “Functional dose-response experiments were performed to identify compounds capable of antagonizing indole-sensitive receptors previously identified (U.S. Pat. No. 9,914,760 B2). Using” for “Using”, “62AM4PEJ). The receptors were exposed to binary mixtures of increasing concentrations of the test compounds in the presence of a potent activation concentration of indole (EC80) for each receptor. […] All the compounds listed decreased the indole induced activity of at least one receptor.” for “62AM4PEJ).”

[13] = biological target: T3, Olfr744 (Mus musculus, UniProt Q7TRM0); assay: as above; format: cell-based; settings: Table 23
T3 construct: Flag; Rho tag; expressed in transfected cells
T3 sequence (Q7TRM0 1-323): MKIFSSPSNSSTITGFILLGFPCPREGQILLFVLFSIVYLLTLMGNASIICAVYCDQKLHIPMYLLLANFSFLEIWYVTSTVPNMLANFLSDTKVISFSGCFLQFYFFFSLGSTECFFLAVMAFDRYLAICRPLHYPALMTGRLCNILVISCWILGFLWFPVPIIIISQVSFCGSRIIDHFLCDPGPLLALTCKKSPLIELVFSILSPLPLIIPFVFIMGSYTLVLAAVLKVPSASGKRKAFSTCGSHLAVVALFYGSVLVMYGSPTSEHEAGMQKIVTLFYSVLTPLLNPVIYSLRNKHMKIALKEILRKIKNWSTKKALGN
Method: as §2, with “Functional dose-response experiments were performed to identify compounds capable of antagonizing indole-sensitive receptors previously identified (U.S. Pat. No. 9,914,760 B2). Using” for “Using”, “62AM4PEJ). The receptors were exposed to binary mixtures of increasing concentrations of the test compounds in the presence of a potent activation concentration of indole (EC80) for each receptor. […] All the compounds listed decreased the indole induced activity of at least one receptor.” for “62AM4PEJ).”

[14] = system: 1-octen-3-ol receptors OR2W1, Olfr93, Olfr120, Olfr398; assay: Antagonists of 1-octen-3-ol receptors (Example 11); format: cell-based, mouse and human; design: Inhibition(%): concentration or dose not given beside the values; settings: Table 19
[15] = Table 22, second listing of the same compounds

Sequence of Olfr738 (L7N1X7 entry or part of it): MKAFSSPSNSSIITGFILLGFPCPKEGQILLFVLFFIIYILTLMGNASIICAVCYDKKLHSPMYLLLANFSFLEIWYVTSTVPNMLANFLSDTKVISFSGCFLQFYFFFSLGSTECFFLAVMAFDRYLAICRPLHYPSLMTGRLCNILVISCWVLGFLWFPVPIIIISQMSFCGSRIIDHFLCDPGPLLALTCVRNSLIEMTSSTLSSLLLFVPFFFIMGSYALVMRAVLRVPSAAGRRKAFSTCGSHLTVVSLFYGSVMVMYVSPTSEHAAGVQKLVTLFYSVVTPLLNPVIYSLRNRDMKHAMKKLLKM
Sequence of Olfr741 (L7N1Y5 entry or part of it): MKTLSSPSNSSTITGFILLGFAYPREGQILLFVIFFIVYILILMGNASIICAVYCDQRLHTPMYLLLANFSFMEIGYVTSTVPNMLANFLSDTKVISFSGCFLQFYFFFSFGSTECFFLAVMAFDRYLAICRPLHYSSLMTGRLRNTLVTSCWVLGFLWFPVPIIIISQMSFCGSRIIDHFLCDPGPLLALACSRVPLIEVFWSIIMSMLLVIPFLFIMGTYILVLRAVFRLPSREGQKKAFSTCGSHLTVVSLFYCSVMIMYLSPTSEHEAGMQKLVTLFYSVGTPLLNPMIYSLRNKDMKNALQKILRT
Sequence of Olfr739 (E9Q1P0 entry or part of it): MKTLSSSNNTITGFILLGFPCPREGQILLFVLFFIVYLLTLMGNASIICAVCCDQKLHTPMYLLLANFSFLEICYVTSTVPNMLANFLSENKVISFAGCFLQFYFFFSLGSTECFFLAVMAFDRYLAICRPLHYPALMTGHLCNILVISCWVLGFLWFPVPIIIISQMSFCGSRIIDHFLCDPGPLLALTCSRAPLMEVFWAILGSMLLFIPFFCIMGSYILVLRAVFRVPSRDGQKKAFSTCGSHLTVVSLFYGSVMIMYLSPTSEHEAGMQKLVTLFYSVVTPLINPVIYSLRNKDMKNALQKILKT
Sequence of Olfr742 (A2RTP5 entry or part of it): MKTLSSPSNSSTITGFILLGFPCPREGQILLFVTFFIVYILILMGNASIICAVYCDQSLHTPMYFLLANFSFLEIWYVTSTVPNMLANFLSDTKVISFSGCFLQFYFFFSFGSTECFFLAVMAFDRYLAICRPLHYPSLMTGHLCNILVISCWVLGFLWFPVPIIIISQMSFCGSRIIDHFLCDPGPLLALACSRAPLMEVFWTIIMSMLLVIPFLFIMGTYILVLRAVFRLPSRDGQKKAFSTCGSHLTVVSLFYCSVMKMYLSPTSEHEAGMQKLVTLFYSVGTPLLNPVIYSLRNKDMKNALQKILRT
Sequence of Olfr740 (E9PV79 entry or part of it): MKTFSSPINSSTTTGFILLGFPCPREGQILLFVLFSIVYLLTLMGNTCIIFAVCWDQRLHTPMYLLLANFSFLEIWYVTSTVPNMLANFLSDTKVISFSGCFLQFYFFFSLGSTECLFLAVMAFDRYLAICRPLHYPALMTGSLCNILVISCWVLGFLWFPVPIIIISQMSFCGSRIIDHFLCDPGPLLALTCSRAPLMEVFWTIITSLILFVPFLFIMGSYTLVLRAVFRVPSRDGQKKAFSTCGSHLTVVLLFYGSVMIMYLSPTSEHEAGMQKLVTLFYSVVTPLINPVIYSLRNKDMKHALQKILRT

Row | Compound | % Inhibition [1] | IC50 [1] | % Remaining in human sensory tests [2] | % Earthy/Moss Odor [3] | % Mushroom/Earthy/Fungal Odor [4] | also measured
1 | 1,4,8-trimethyl-13-oxabicyclo[10.1.0]trideca-4,8-diene; 1,5,8-trimethyl-13-oxabicyclo[10.1.0]trideca-4,8-diene | 50% | 81 µM | 85% | 43.30% | 30.20% | % Earthy/Moss Odor Remaining ([3]; Low Dilution Test Compound + Geonol (0.1%)): 92.00%; % Earthy/Moss Odor Remaining ([3]; Medium Dilution Test Compound + Geonol (0.1%)): 91.50%; % Mushroom/Earthy/Fungal Odor Remaining ([4]; Low Dilution Test Compound + 1-octen-3-ol (0.15%)): 93.80%; % Mushroom/Earthy/Fungal Odor Remaining ([4]; Medium Dilution Test Compound + 1-octen-3-ol (0.15%)): 79.50%; IC50 [5]: 266 µM; % Inhibition [5]: 70.92%
2 | CC1(C)CCCC2(C)CC(=O)CCC12 (racemic) |  |  |  |  |  | Olfr738 % Inhibition [6, 15]: 123.10%; Emax [7, 15]: 81.4%; IC50 [8, 15]: 106 µM; Olfr741 % Inhibition [8, 15]: 65.60%; Emax [9, 15]: 97%; Olfr739 % Inhibition [10, 15]: 107.89%
3 | C/C=C/C(=O)C1C(C)=CCCC1(C)C (racemic) [(+−)-(2E)-1-(2,6,6-trimethyl-2-cyclohexen-1-yl)-2-buten-1-one] |  |  |  |  |  | IC50 [11]: 50.5 µM; IC50 [6]: 99.8 µM; Olfr738 % Inhibition ([6]; Table 22, first listing): 12.19%; Emax ([7]; Table 22, first listing): 115%; IC50 [7]: 137 µM; IC50 ([8]; Table 22, first listing): 110 µM; Olfr741 % Inhibition ([8]; Table 22, first listing): 75.65%; Emax ([9]; Table 22, first listing): 113%; Emax [9, 15]: 47.9%; IC50 ([9]; Table 22, first listing (r7-r45), read-out: Olfr742 IC50): 95.4 µM; IC50 [12]: 156 µM; Olfr749 % Inhibition [12]: 47.86%
4 | CC=CC(=O)C1C(C)C=CCC1(C)C (centres unmarked) [1-(2,6,6-trimethyl-1-cyclohex-3-enyl)but-2-en-1-one] | 10% | 301 µM | 66* % | 31.80% | 24.00% | IC50 [11]: 210 µM
5 | CC(C)(C)c1ccccc1O [2-tertbutyl phenol] | 100% | 88 µM | 46* % | 41.30% |  | IC50 [5]: 37 µM; % Inhibition [5]: 100.34%
6 | CC(C)(C)C1CCC(=O)CC1 [4-t-butylcyclohexanone] |  |  |  |  |  | IC50 [6]: 43.1 µM; Olfr738 % Inhibition ([6]; Table 22, first listing): 52.44%; Emax ([7]; Table 22, first listing): 213%; IC50 [7]: 10.6 µM; Olfr739 % Inhibition ([10]; Table 22, first listing): 60.32%; IC50 ([10]; Table 22, first listing (r7-r45)): 69.9 µM; Olfr739 % Inhibition [10, 15]: 148.19%; IC50 [13]: 175 µM; Olfr744 % Inhibition [13]: 148.19%
7 | CCCCCCc1ccc(C)nc1 [5-hexyl-2-methylpyridine 10% Citr, 5-hexyl-2-methylpyridine] |  | 555 µM | 37% | 46.40% |  | 
8 | CC(=O)CCC=C(C)CCC=C(C)C [6,10-dimethylundeca-5,9-dien-2-one] | 50% | 133 µM | 45* % | 52.80% |  | 
9 | CC(=O)OC(c1ccccc1)C(Cl)(Cl)Cl (centres unmarked) [(2,2,2-trichloro-1-phenylethyl) acetate] |  |  | 61% | 38.60% | 30.00% | 
10 | Cc1ccc2c(c1)CC(C)(CO)C2 (centres unmarked) [(2,5-dimethyl-1,3-dihydroinden-2-yl)methanol] |  |  | 37* % | 41.70% | 36.30% | 
11 | CC=Cc1ccc(OCC)c(O)c1 [Compound 2-ethoxy-5-prop-1-enylphenol, 2-ethoxy-5-prop-1-enylphenol] | 33% | 111 µM | 34* % | 27.10% | 23.20% | 
12 | O=C1CCC=CCCCCCCCCCC1 [cyclopentadec-4-en-1-one] | 45% | 61 µM | 47% | 49.90% | 25.80% | IC50 [14]: 57.8 µM; Inhibition(%) [14]: 130%
13 | CCC=CCCC=CC=O [nona-2,6-dienal] | 80% | 156 µM | 67% | 65.40% |  | 
14 | Cc1ccc(C(C)C)c(O)c1 [thymol, 5-Methyl-2-(propan-2-yl)phenol] | 100% | 107 µM | 53% | 54.70% |  | 
